Common to all, as to assay type: functional
The subject of one test is DU-145. The experiment in a line: Cytotoxicity against human DU145 cells after 72 hrs by MTT assay. Particulars: DU-145, 72 h, read-out: ED50 (the source's name).
For the next test, the system named is A549. The experiment in a line: Cytotoxicity against human A549 cells after 72 hrs by MTT assay. Particulars: A549, 72 h, read-out: ED50 (the source's name).
A further test relates to SK-BR-3. Put plainly: Cytotoxicity against human SKBR3 cells after 72 hrs by MTT assay. Particulars: SK-BR-3, 72 h, read-out: ED50 (the source's name). A general note: Formazan colour is commonly taken as a measure of viable cells.
Test [1] is described as follows: Cytotoxicity against human KBVIN cells after 72 hrs by MTT assay. The note with it: read-out: ED50 (the source's name).
In a further test the test system is KB. The experiment in a line: Cytotoxicity against human KB cells after 72 hrs by MTT assay. Particulars: read-out: ED50 (the source's name).

The text below walks through data of ChEMBL document CHEMBL1759953, “Antitumor agents 287. Substituted 4-amino-2H-pyran-2-one (APO) analogs reveal a new scaffold from neo-tanshinlactone with in vitro anticancer activity” (2011).

SMILES strings stand for the structures. pEC50: −log10 of the molar value. A value given as a limit tells only on which side of the number the result lay.

For the compound `O=c1cc(NC2CCCCC2)cc(/C=C/c2ccccc2)o1`, the pEC50 with DU-145 is 5.91; with A549 it was 5.90; in the test on SK-BR-3 it was 5.82; in test [1] it was 5.91; in the test on KB, 5.69.
For the compound `COc1ccc(Nc2cc(-c3ccc4ccccc4c3)oc(=O)c2)cc1`, the pEC50 with DU-145 was 6.82; in the test on A549, 6.82; in the test on SK-BR-3, 6.89; in test [1], 6.89; in the test on KB it was 6.74.
As for `COc1ccc(Nc2cc(C3CCCCC3)oc(=O)c2)cc1`, the pEC50 in the test with DU-145 was 5.06; in the test on A549, 5.34; in the test on SK-BR-3, 5.28; in test [1] it was 5.36; with KB, 5.08.
Taken in the same sequence, the figures for `COc1ccc(Nc2cc(C3CCCC3)oc(=O)c2)cc1` were 5.27, 5.27, 5.33, 5.30 and 5.08.
As for `O=c1cc(Nc2ccc(Br)cc2)cc(-c2ccccc2)o1`, the pEC50 with DU-145 was 6.47; in the test with A549, 6.51; with SK-BR-3, 6.40; in test [1], 6.62; with KB it was 6.49.
As for `COc1ccc(Nc2cc(C(C)C)oc(=O)c2)cc1`, the pEC50 (with DU-145; with A549; in the test on SK-BR-3; in test [1]; in the test on KB) was under 4.52 in each case.
Take `Nc1cc(=O)oc2c1ccc1ccccc12`: the pEC50 in the test on DU-145 was 6.96; in the test on A549, 6.96; in the test on SK-BR-3 it was 6.89; in test [1], 6.89; in the test on KB it was 6.77.
Take `COc1ccc(Nc2cc(Cc3ccccc3)oc(=O)c2)cc1`: the pEC50 was 5.80 in the test with DU-145, 5.79 in the test on A549, 5.87 with SK-BR-3 and 5.89 in test [1].
In the case of `COc1ccc(Nc2cc(-c3ccco3)oc(=O)c2)cc1`, the pEC50 was 5.71 in the test on DU-145; 5.72 in the test with A549; 5.75 with SK-BR-3; 5.84 in test [1]; 5.58 in the test with KB.
The like results for `COc1ccc(Nc2cc(C)oc(=O)c2)cc1` were, in that order, under 4.52, under 4.52, under 4.52, under 4.52 and under 4.52.
On to `COc1ccc(Nc2cc(-c3ccccc3)oc(=O)c2)cc1`, for which the pEC50 is 6.92 in the test on DU-145; 7.03 in the test with A549; 7.10 in the test with SK-BR-3; 7.01 in test [1]; 6.80 with KB.
Taken in the same sequence, the figures for `Cc1ccc(Nc2cc(-c3ccccc3)oc(=O)c2)cc1` were 7.14, 7.17, 7.05, 7.23 and 7.19.
With `COc1cccc(Nc2cc(-c3ccccc3)oc(=O)c2)c1`, the pEC50 in the test on DU-145 was 6.18; in the test with A549, 6.20; with SK-BR-3 it was 6.13; in test [1], 6.26; in the test on KB, 6.31.
The like results for `CCCCCc1cc(Nc2ccc(OC)cc2)cc(=O)o1` were, in that order, 5.23, 5.35, 5.31, 5.32 and 5.00.
As for `COc1ccccc1Nc1cc(-c2ccccc2)oc(=O)c1`, the pEC50 in the test with DU-145 was 6.43; in the test with SK-BR-3, 6.27; in test [1] it was 6.31; in the test on KB it was 6.46.
As to `O=c1cc(Nc2ccccc2)cc(-c2ccccc2)o1`, the pEC50 in the test on DU-145 is 7.01; with A549, 6.92; with SK-BR-3 it was 6.89; in test [1], 6.82; in the test with KB, 6.89.
Take `O=c1cc(NC2CCCCC2)cc(-c2ccccc2)o1`: the pEC50 in the test with DU-145 was 5.13; in the test on A549, 5.01; in the test on SK-BR-3 it was 4.96; in test [1], 5.04; in the test with KB, 4.80.
On to `O=c1cc(N2CCCCC2)cc(-c2ccccc2)o1`, for which the pEC50 (in the test on DU-145; in the test with A549; with SK-BR-3; in test [1]; in the test with KB) was under 4.52 throughout.
As to `O=c1cc(NC2CC2)cc(-c2ccccc2)o1`, the pEC50 (in the test with DU-145; in the test with A549; in the test with SK-BR-3; in test [1]; in the test on KB) was under 4.52 throughout.
In the case of `COc1ccc(Nc2cc(/C=C/c3ccccc3)oc(=O)c2)cc1`, the pEC50 with DU-145 was 6.96; with A549 it was 6.96; in the test on SK-BR-3, 7.08; in test [1], 7.00; in the test with KB it was 6.82.
